This note sets out measurements from US20210395210A1, “INHIBITION OF BACTERIAL CHAPERONIN SYSTEMS” (THE TRUSTEES OF INDIANA UNIVERSITY, priority 2018, published 2021).

In general, IC50 refers to the midpoint of a concentration-inhibition curve.

The target of experiment [1] is T1, native MDH (Sus scrofa, UniProt P00346).
T1 construct: soluble pig heart MDH from Roche, product #10127248001; purchased Roche 10127248001; host or cells: pig heart
T1 sequence (P00346 25-338): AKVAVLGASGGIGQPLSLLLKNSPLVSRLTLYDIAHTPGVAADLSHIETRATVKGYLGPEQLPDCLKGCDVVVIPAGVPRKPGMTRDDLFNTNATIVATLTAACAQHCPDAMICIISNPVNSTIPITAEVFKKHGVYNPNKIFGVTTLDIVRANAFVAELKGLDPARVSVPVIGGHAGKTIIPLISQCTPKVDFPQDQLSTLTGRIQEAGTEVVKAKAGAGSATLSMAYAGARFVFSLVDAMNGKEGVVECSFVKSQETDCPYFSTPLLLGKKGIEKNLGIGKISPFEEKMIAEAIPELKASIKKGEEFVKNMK
Briefly: Counter-screen for inhibition of native MDH enzymatic activity. The format is biochemical, pig. An outline of the steps: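 Fully refolded MDH, produced by a 45 min, 37 °C GroEL/ES reaction and stopped with EDTA, was then dosed with compound (62.5 μM–29 nM, 8 points, 3-fold). Activity was read as A340 NADH decrease until ~90% consumed; reported IC50s are means of at least quadruplicate runs.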

The test system of experiment [2] is Enterococcus faecium (ATCC 19434). Briefly: Bacterial proliferation assay, E. faecium. The class given is cell-based. An outline of the steps:
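This stagnant growth-inhibition assay used E. faecium (ATCC 19434) in cation-adjusted Brain Heart Infusion medium. Diluted cultures (OD600 0.017) were added to clear flat-bottom 384-well plates containing 0.5 μL compound in 20 μL media. After 24 h without shaking at 37° C., absorbance at 600 nm was measured, corrected with bacteria-free plates, and EC50 values were averaged from quadruplicates.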

In experiment [3] the test system is Drug sensitive Staphylococcus aureus (ATCC 25923). Briefly: Bacterial proliferation assay, drug sensitive S. aureus. The class given is cell-based. The essentials: (§1)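 Cation-adjusted BHI (25 mg/L Ca2+, 12.5 mg/L Mg2+); inoculum OD600 0.017; static 37 °C. Read OD600 at 6-8 h for S. aureus, E. cloacae, P. aeruginosa; 24 h for A. baumannii.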
Experiment [4] deals with Methicillin resistant S. aureus (MRSA) (ATCC BAA-44). The experiment is described as follows: Bacterial proliferation assay, MRSA. The format is cell-based, Staphylococcus aureus. Conditions: Staphylococcus aureus. The essentials:
as §1

The subject of experiment [5] is Klebsiella Pneumonia (ATCC 13883). Briefly: Bacterial proliferation assay, K. pneumoniae. The format is cell-based. The essentials:
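Growth inhibition of K. pneumoniae (ATCC 13883) was measured in cation-adjusted BHI broth. An overnight culture was sub-cultured 1:5 for 1-2 hours, then diluted to OD600 of 0.017 and dispensed into compound-stamped 384-well plates. Plates were sealed with oxygen-permeable membranes and incubated without shaking at 37° C. for 6-8 h. Absorbance at 600 nm was corrected against bacteria-free control plates, and EC50 was averaged from quadruplicate replicates.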

Experiment [6] has as its system Pseudomonas aeruginosa (ATCC 10145). The experiment is described as follows: Bacterial proliferation assay, P. aeruginosa. The class given is cell-based. The essentials:
as §1

Experiment [7] concerns Enterobacter cloacae (ATCC 13047). Briefly: Bacterial proliferation assay, E. cloacae. The class given is cell-based. The essentials: as §1
[8] abbreviates: log of IC50 (μM scale), with standard deviation, read-out: log(IC50) Native MDH Reporter (converted).
Setting [9] is: read-out: Biochemical Assay IC50 Native MDH Reporter.
The mark [10] stands for this setting: ATCC19434, OD600 at 24 h, read-out: Bacterial Proliferation EC50 E. faecium.
The mark [11] stands for this setting: ATCC19434, log of EC50 (μM scale), with standard deviation, read-out: log(EC50) Bacterial Proliferation Assay C. faecium (converted).
The mark [12] stands for this setting: ATCC25923, OD600 at 6-8 h, read-out: Bacterial Proliferation EC50 S. aureus Sensitive.
[13] abbreviates: ATCC25923, log of EC50 (μM scale), with standard deviation, read-out: log(EC50) Bacterial Proliferation Assay S. aureus Sensitive (converted).
Where [14] appears, read: MRSA, log of EC50 (μM scale), with standard deviation, read-out: log(EC50) Bacterial Proliferation Assay S. aureus Resistant (converted).
[15] abbreviates: ATCC13883, OD600 at 6-8 h, read-out: Bacterial Proliferation EC50 K. pneumoniae.
Where [16] appears, read: ATCC13883, log of EC50 (μM scale), with standard deviation, read-out: log(EC50) Bacterial Proliferation Assay K. pneumoniae (converted).
Where [17] appears, read: ATCC10145, OD600 at 6-8 h, read-out: Bacterial Proliferation EC50 P. aeruginosa.
The mark [18] stands for this setting: ATCC10145, log of EC50 (μM scale), with standard deviation, read-out: log(EC50) Bacterial Proliferation Assay P. aeruginosa (converted).
[19] abbreviates: ATCC13047, OD600 at 6-8 h, read-out: Bacterial Proliferation EC50 E. cloacae.
Where [20] appears, read: ATCC13047, log of EC50 (μM scale), with standard deviation, read-out: log(EC50) Bacterial Proliferation Assay E. cloacae (converted).
Setting [21] is: MRSA, OD600 at 6-8 h, read-out: Bacterial Proliferation EC50 S. aureus Resistant.

Like-named read-outs stand apart in the source and are kept apart here.

In the case of `O=C(Nc1ccc(Sc2nc3ccccc3s2)c(Cl)c1)c1cccc(Br)c1` [Compound 18, N-(4-(Benzo[d]thiazol-2-ylthio)-3-chlorophenyl)-3-bromobenzamide], the 50% inhibitory concentration (IC50) in experiment [1] (setting [8]) is above 63.1 µM; in experiment [1] (setting [9]) it was above 63 µM. In addition, the EC50 in experiment [2] (setting [10]), in experiment [2] (setting [11]), in experiment [3] (setting [12]), in experiment [3] (setting [13]), in experiment [4] (setting [14]) and in experiment [5] (setting [15]) was above 100 µM each time. Moreover, the EC50 in experiment [5] (setting [16]), in experiment [6] (setting [17]), in experiment [6] (setting [18]), in experiment [7] (setting [19]) and in experiment [7] (setting [20]) was above 100 µM throughout.
Take `COc1c(Br)cc(Br)cc1C(=O)Nc1ccccc1` [Compound 41, 3,5-Dibromo-2-methoxy-N-phenylbenzamide]: the values for the concentration for half-maximal inhibition (IC50) in experiment [1] (setting [8]) and in experiment [1] (setting [9]) were above 63.1 µM and above 63 µM, respectively. Further, the EC50 in experiment [2] (setting [10]), in experiment [2] (setting [11]), in experiment [3] (setting [12]), in experiment [3] (setting [13]), in experiment [4] (setting [14]) and in experiment [5] (setting [15]) was above 100 µM throughout. Also, the EC50 in experiment [5] (setting [16]), in experiment [6] (setting [17]), in experiment [6] (setting [18]), in experiment [7] (setting [19]) and in experiment [7] (setting [20]) was above 100 µM in each case.
Consider `O=C(Nc1cccc(Cl)c1)c1cc(Br)cc(Br)c1` [Compound 23, 3,5-Dibromo-N-(3-chlorophenyl)benzamide], for which the results for the IC50 in experiment [1] (setting [8]) and in experiment [1] (setting [9]) were above 63.1 µM and above 63 µM, respectively. Besides, the EC50 is above 100 µM in experiment [2] (setting [10]); above 100 µM in experiment [2] (setting [11]); 14 µM in experiment [3] (setting [12]); 13.8 µM in experiment [3] (setting [13]); 12 µM in experiment [4] (setting [21]); 11.7 µM in experiment [4] (setting [14]). For the same molecule, the EC50 in experiment [5] (setting [15]), in experiment [5] (setting [16]), in experiment [6] (setting [17]), in experiment [6] (setting [18]), in experiment [7] (setting [19]) and in experiment [7] (setting [20]) was above 100 µM in each case.
As for `O=C(Nc1ccc(Sc2nc3ccccc3s2)c(Cl)c1)c1cc(Br)cc(Br)c1` [Compound 17, N-(4-(Benzo[d]thiazol-2-ylthio)-3-chlorophenyl)-3,5-dibromobenzamide], the IC50 in experiment [1] (setting [8]) is above 63.1 µM; in experiment [1] (setting [9]) it was above 63 µM. The EC50 in experiment [2] (setting [10]), in experiment [2] (setting [11]), in experiment [3] (setting [12]), in experiment [3] (setting [13]), in experiment [4] (setting [14]) and in experiment [5] (setting [15]) was above 100 µM in each case. The EC50 in experiment [5] (setting [16]), in experiment [6] (setting [17]), in experiment [6] (setting [18]), in experiment [7] (setting [19]) and in experiment [7] (setting [20]) was above 100 µM throughout.
Regarding `COc1ccccc1C(=O)Nc1ccccc1` [Compound 44, 2-Methoxy-N-phenylbenzamide], the half-maximal inhibitory concentration (IC50) is above 63.1 µM in experiment [1] (setting [8]) and above 63 µM in experiment [1] (setting [9]). For the same molecule, the EC50 in experiment [2] (setting [10]), in experiment [2] (setting [11]), in experiment [3] (setting [12]), in experiment [3] (setting [13]), in experiment [4] (setting [14]) and in experiment [5] (setting [15]) was above 100 µM in each case. Also, the EC50 in experiment [5] (setting [16]), in experiment [6] (setting [17]), in experiment [6] (setting [18]), in experiment [7] (setting [19]) and in experiment [7] (setting [20]) was above 100 µM throughout.
`O=C(Nc1cccc(Cl)c1)c1ccccc1` [Compound 25, N-(3-Chlorophenyl)benzamide]: the half-maximal inhibitory concentration (IC50) was above 63.1 µM in experiment [1] (setting [8]) and above 63 µM in experiment [1] (setting [9]). Moreover, the EC50 in experiment [2] (setting [10]), in experiment [2] (setting [11]), in experiment [3] (setting [12]), in experiment [3] (setting [13]), in experiment [4] (setting [14]) and in experiment [5] (setting [15]) was above 100 µM throughout. The EC50 in experiment [5] (setting [16]), in experiment [6] (setting [17]), in experiment [6] (setting [18]), in experiment [7] (setting [19]) and in experiment [7] (setting [20]) was above 100 µM throughout.
As for `O=C(Nc1ccc(Sc2nc3ccccc3s2)cc1)c1cc(Br)ccc1O` [Compound 7, N-(4-(Benzo[d]thiazol-2-ylthio)phenyl)-5-bromo-2-hydroxybenzamide], the “inhibition of native MDH enzymatic activity (in words)” value in experiment [1] (false-positive counter-screen) is “inactive against the reporter enzymes”. Moreover, the IC50 is above 63.1 µM in experiment [1] (setting [8]) and above 63 µM in experiment [1] (setting [9]). In addition, the EC50 was 19 µM in experiment [2] (ATCC19434, 24 h, read-out: Bacterial Proliferation EC50 E. faecium); 19.5 µM in experiment [2] (ATCC19434, read-out: log(EC50) Bacterial Proliferation Assay C. faecium (converted)); 0.12 µM in experiment [3] (ATCC25923, read-out: Bacterial Proliferation EC50 S. aureus Sensitive); 0.12 µM in experiment [3] (ATCC25923, read-out: log(EC50) Bacterial Proliferation Assay S. aureus Sensitive (converted)); 0.14 µM in experiment [4] (read-out: Bacterial Proliferation EC50 S. aureus Resistant); 0.141 µM in experiment [4] (read-out: log(EC50) Bacterial Proliferation Assay S. aureus Resistant (converted)). Moreover, the EC50 was above 100 µM in experiment [5] (ATCC13883, read-out: Bacterial Proliferation EC50 K. pneumoniae); above 100 µM in experiment [5] (ATCC13883, read-out: log(EC50) Bacterial Proliferation Assay K. pneumoniae (converted)); above 100 µM in experiment [6] (ATCC10145, read-out: Bacterial Proliferation EC50 P. aeruginosa); above 100 µM in experiment [6] (ATCC10145, read-out: log(EC50) Bacterial Proliferation Assay P. aeruginosa (converted)); above 100 µM in experiment [7] (ATCC13047, read-out: Bacterial Proliferation EC50 E. cloacae); above 100 µM in experiment [7] (ATCC13047, read-out: log(EC50) Bacterial Proliferation Assay E. cloacae (converted)).
As to `O=C(Nc1ccc(Sc2nc3ccccc3s2)c(Cl)c1)c1ccccc1O` [Compound 4, N-(4-(Benzo[d]thiazol-2-ylthio)-3-chlorophenyl)-2-hydroxybenzamide], the concentration for half-maximal inhibition (IC50) is above 63.1 µM in experiment [1] (setting [8]) and above 63 µM in experiment [1] (setting [9]). The EC50 is 64 µM in experiment [2] (setting [10]); 63.1 µM in experiment [2] (setting [11]); 0.31 µM in experiment [3] (setting [12]); 0.309 µM in experiment [3] (setting [13]); 0.45 µM in experiment [4] (setting [21]); 0.447 µM in experiment [4] (setting [14]). The EC50 in experiment [5] (setting [15]), in experiment [5] (setting [16]), in experiment [6] (setting [17]), in experiment [6] (setting [18]), in experiment [7] (setting [19]) and in experiment [7] (setting [20]) was above 100 µM each time.
